# Reference: ChEMBL document CHEMBL1201862, “PubChem BioAssay data set” (2004)
# The source made the active and inactive calls. Unless noted, the rule behind the calls is not given here.
# Tests used:
# [1] = biological target: T1, Nucleotide-binding oligomerization domain-containing protein 1 (Homo sapiens, UniProt Q9Y239); experiment: SAR analysis of NF-kappaB dependent luciferase using DAP as an inducer - Set 2. [Related pubchem assays (depositor defined):AID1566, AID1575, AID1578, AID1579, AID1849, AID1852, AID2264]; assay type: functional
# T1 sequence (Q9Y239 whole entry): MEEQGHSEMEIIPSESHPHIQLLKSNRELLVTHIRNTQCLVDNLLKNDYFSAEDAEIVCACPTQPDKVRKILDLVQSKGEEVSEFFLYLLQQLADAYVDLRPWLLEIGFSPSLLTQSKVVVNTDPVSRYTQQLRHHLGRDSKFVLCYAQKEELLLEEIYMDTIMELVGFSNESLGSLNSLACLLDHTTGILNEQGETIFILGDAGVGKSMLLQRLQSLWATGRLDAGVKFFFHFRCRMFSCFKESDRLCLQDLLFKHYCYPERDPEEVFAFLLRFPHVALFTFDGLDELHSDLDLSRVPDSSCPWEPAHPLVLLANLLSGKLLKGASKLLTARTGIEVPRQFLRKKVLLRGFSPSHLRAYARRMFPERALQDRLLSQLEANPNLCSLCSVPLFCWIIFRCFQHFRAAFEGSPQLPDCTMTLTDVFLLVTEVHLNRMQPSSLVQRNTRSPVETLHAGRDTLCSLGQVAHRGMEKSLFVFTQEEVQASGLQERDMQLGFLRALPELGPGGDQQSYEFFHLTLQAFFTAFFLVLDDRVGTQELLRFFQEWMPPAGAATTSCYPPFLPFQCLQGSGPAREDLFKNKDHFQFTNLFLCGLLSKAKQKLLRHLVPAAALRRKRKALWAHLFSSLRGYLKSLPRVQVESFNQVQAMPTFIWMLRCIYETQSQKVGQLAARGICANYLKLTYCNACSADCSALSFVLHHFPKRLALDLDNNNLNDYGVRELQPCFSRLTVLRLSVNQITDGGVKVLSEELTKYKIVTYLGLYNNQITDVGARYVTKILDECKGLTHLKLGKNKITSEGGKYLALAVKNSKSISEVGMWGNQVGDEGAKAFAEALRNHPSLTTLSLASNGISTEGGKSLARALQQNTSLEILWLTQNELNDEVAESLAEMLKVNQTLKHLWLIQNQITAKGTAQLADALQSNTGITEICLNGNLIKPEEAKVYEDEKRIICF
# Interleukin-8 [2] = biological target: T2, Interleukin-8 (Homo sapiens, UniProt P10145); experiment: SAR analysis of Tumor necrosis factor alpha (TNF-alpha) induced IL-8 secretion in MCF-7/NOD1 cells - Set 2. [Related pubchem assays (depositor defined):AID1575, AID2250, AID2260]; assay type: functional, cell-based
# T2 sequence (P10145 whole entry): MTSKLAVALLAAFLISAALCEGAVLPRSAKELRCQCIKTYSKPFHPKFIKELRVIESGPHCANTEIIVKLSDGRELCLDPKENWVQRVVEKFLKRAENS
# Interleukin-8 [3] = biological target: T2, Interleukin-8; experiment: SAR analysis of GM-Tri-DAP induced IL-8 secretion in MCF-7/NOD1 cells - Set 2. [Related pubchem assays (depositor defined):AID1575, AID1578, AID2333]; assay type: functional, cell-based
# [4] = biological target: T3, Nucleotide-binding oligomerization domain-containing protein 2 (Homo sapiens, UniProt Q9HC29); experiment: NOD2 inhibitors, SAR follow-up, set 2 (AID 2475); assay type: functional
# HEK293 [5] = experiment: SAR analysis of compounds that are cytotoxic to HEK293 - Set 2. [Related pubchem assays (depositor defined):AID1575, AID1578, AID1849, AID2001, AID2333, AID2334, AID2335, AID2337, AID2800]; assay type: functional, cell-based; settings: Homo sapiens
# [6] = biological target: T1, Nucleotide-binding oligomerization domain-containing protein 1; experiment: SAR analysis of compounds that inhibit NOD1 - Set 3. [Related pubchem assays (depositor defined):AID1566, AID1575, AID1578, AID1849, AID1852, AID2333, AID2335, AID2466]; assay type: functional
# Tumor necrosis factor = Tumor necrosis factor (Homo sapiens, UniProt P01375); experiment: TNFa-triggered NF-kB activation inhibitors, SAR follow-up, cell-based, set 3 (AID 2801); assay type: functional
# HEK293 [7] = experiment: SAR analysis of compounds that are cytotoxic to HEK293 - Set 3. [Related pubchem assays (depositor defined):AID1575, AID1578, AID1848, AID1849, AID2001, AID2333, AID2334, AID2335, AID2337, AID2469]; assay type: functional, cell-based; settings: Homo sapiens
# [8] = biological target: T3, Nucleotide-binding oligomerization domain-containing protein 2; experiment: NOD2 signaling inhibitors, analog potency, SAR follow-up, cell-based, set 3 (AID 2799); assay type: functional
# [9] = decrease of PhoP-driven GFP reporter signal, S. Typhimurium, dose response, PhoP regulon inhibitor project, purified and synthesized compounds, set 2 (AID 2831); assay type: functional
# [10] = biological target: T4, E3 ubiquitin-protein ligase XIAP (Homo sapiens, UniProt P98170); experiment: SAR analysis of Antagonists of XIAP-Bir3 domain of IAP-family anti-apoptotic proteins. [Related pubchem assays (depositor defined):AID1018, AID1449, AID1513, AID1514, AID1638]
# [11] = biological target: T4, E3 ubiquitin-protein ligase XIAP; experiment: SAR analysis of Antagonists of IAP-family anti-apoptotic proteins. [Related pubchem assays (depositor defined):AID1018, AID1449, AID1513, AID1514, AID1638]
# T3 sequence (Q9HC29 whole entry, the tested form may be a part): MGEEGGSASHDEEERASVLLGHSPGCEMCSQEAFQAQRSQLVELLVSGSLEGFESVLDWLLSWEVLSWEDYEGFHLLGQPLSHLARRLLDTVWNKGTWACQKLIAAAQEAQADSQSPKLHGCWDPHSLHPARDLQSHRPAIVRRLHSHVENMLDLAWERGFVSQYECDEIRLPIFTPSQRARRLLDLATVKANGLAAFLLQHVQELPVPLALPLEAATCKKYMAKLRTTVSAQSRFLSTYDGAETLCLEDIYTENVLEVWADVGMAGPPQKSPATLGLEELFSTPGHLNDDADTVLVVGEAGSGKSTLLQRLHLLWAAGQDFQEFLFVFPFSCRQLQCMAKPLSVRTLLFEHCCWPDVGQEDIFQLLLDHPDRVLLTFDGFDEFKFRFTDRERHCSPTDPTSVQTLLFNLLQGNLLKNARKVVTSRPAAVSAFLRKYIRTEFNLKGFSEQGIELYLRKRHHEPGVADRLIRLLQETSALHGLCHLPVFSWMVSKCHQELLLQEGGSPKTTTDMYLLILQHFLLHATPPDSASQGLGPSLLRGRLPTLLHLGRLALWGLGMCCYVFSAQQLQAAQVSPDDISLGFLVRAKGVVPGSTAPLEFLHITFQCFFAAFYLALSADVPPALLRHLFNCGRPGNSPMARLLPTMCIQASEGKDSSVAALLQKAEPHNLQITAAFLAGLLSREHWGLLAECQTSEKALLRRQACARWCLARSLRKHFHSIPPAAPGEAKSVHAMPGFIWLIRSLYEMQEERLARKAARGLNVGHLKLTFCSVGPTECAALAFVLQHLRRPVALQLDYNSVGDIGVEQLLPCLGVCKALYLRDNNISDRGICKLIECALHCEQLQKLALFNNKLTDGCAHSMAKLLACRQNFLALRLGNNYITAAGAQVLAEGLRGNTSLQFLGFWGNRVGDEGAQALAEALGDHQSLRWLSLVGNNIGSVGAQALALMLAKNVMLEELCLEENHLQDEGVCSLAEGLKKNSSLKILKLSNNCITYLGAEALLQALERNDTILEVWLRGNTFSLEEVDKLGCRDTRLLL
# T4 sequence (P98170 whole entry, the tested form may be a part): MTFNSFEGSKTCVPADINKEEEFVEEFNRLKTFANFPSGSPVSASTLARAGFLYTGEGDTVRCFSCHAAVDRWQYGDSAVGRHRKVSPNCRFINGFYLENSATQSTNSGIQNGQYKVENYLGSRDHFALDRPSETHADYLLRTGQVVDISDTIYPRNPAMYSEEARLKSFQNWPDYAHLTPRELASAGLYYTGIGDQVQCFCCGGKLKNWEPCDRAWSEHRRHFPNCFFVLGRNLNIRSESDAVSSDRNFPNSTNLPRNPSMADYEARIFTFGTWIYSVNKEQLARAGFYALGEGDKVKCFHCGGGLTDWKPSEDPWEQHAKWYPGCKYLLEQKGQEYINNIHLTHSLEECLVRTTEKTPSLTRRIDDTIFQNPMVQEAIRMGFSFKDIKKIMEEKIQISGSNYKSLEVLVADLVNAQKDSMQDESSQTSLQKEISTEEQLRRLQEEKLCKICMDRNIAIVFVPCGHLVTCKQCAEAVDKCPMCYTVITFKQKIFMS
# Sequence of Tumor necrosis factor (P01375 whole entry): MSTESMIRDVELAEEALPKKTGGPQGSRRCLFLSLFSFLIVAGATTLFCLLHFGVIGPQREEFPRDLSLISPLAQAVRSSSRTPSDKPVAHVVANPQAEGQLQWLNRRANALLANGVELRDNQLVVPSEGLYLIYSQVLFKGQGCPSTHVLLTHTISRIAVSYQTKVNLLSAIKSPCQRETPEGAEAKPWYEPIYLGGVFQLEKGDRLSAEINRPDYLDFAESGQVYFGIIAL
compound,measurement,setting,value
CCCCCn1c(SCCc2ccccc2)nc2c1c(=O)[nH]c(=O)n2C,IC50,[1],> 25 µM (inactive)
same,IC50,Interleukin-8 [2],> 25 µM (inactive)
same,IC50,Interleukin-8 [3],4.1 µM (active)
same,IC50,[4],> 20 µM (inactive)
same,IC50,HEK293 [5],> 20 µM (inactive)
same,IC50,[6],1.74 µM (active)
same,IC50,Tumor necrosis factor,> 20 µM (inactive)
same,IC50,HEK293 [7],> 20 µM (inactive)
same,IC50,[8],> 20 µM (inactive)
OC1=C2C(=Nc3ccccc3SC2c2ccco2)c2ccccc21 (configuration not stated),IC50,[9],> 125 µM (active)
CN[C@@H](C)C(=O)N[C@H](C(=O)N[C@@H](C)C(=O)NNc1ccccc1)C(C)C,IC50,[10],132 µM (active)
same,IC50,[11],4.7 µM (active)
